Reference: patent US20250019385A1, “SPIROCYCLIC ANNULATED 2-AMINO-3-CYANO THIOPHENES AND DERIVATIVES FOR THE TREATMENT OF CANCER” (Boehringer Ingelheim International GmbH, priority 2023, published 2025)
pIC50: −log10 of the molar value.

Tests used:
[1] = system: NCI-H358 cells; assay: NCI-H358 CTG proliferation assay (120 h) (NSCLC, G12C); type: cell-based; conditions: Homo sapiens
Description: (§1) NCI-H358 cells (ATCC No. CRL-5807) are dispensed into black 384-well plates, flat and clear bottom (Greiner, PNr. 781091) at a density of 200 cells per well in 60 μl RPMI-1640 ATCC-Formulation (Gibco #A10491)+10% FCS (fetal calf serum). Cells are incubated overnight at 37° C. in a humidified tissue culture incubator at 5% CO2. Compounds (10 mM stock in DMSO) are added at logarithmic dose series using the ECHO acoustic liquid handler system (Beckman Coulter), normalizing for added DMSO and including DMSO controls. All compound treatments are performed in technical duplicates. For the TO time point measurement, untreated cells are analyzed at the time of compound addition. Plates are incubated for 120 h, and cell viability is measured using CellTiter-Glo luminescent cell viability reagent (Promega product code G7570). Viability (stated as percent of control) is defined as relative luminescence units RLU of each well divided by the RLU of cells in DMSO controls. IC50 values are determined from viability measurements by non-linear regression using a four-parameter model.
(§2) IC50 values of representative compounds according to the invention measured with these assays in the indicated cell lines are presented in Table 46.

[2] = system: Ba/F3 cells KRAS G12V; assay: Ba/F3 proliferation assay (KRAS G12V); type: cell-based; conditions: Mus musculus, BaF3, 72 h, AlamarBlue viability
Description: (§3) Ba/F3 cells are ordered from DSMZ (ACC300, Lot17) and grown in RPMI-1640 (ATCC 30-2001)+10% FCS+10 ng/mL IL-3 at 37° C. in 5% […] atmosphere. Plasmids containing KRASG12 mutants (i.e. […], G12C, G12V) are obtained from GeneScript. To generate KRASG12-dependent Ba/F3 models, Ba/F3 cells are transduced with retroviruses containing vectors that harbor KRASG12 isoforms. Platinum-E cells (Cell Biolabs) are used for retrovirus packaging. Retrovirus is added to Ba/F3 cells. To ensure infection, 4 μg/mL polybrene is added and cells are spinfected. Infection efficiency is confirmed by measuring GFP-positive cells using a cell analyzer. Cells with an infection efficiency of 10% to 20% are further cultivated and puromycin selection with 1 μg/mL is initiated. As a control, parental Ba/F3 cells are used to show selection status. Selection is considered successful when parental Ba/F3 cells cultures died. To evaluate the transforming potential of KRASG12 mutations, the growth medium is no longer supplemented with IL-3. Ba/F3 cells harboring the empty vector are used as a control. Approximately ten days before conducting the experiments, puromycin is left out.
(§4) For proliferation assays, Ba/F3 cells are seeded into 384-well plates at 1.5×1 (M cells/60 μL in growth media (RPMI-1640+10% FCS). Compounds (10 mM stock in DMSO) are added at logarithmic dose series using the ECHO acoustic liquid handler system (Beckman Coulter), normalizing for added DMSO and including DMSO controls. All compound treatments are performed in technical duplicates. For the TO time point measurement, untreated cells are analyzed at the time of compound addition. Treated cells are incubated for 72 h at 37° C. with 5% CO2 and cell viability is measured in the PerkinElmer Envision Multimode Reader using AlamarBlue™ (ThermoFisher) viability stain. Viability (stated as percent of control) is defined as relative fluorescence units RFU of each well divided by the RFU of cells in DMSO controls. IC50 values are determined from viability measurements by non-linear regression using a four-parameter model.

[3] = system: Ba/F3 cells KRAS G12C; assay: Ba/F3 proliferation assay (KRAS G12C); type: cell-based; conditions: Mus musculus, BaF3, 72 h, AlamarBlue viability
Description: as §3, §4

[4] = system: NCI-H727 cells; assay: NCI-H727 CTG proliferation assay (120 h) (lung cancer, G12V); type: cell-based; conditions: Homo sapiens
Description: as §1, with “NCI-H727” for “NCI-H358”, “CRL-5815)” for “CRL-5807)”, “500” for “200”, “RPMI” for “RPMI-1640”, “(PAN P04-18047)+10%” for “(Gibco #A10491)+10%”, “serum, HyClone, SH30084.03).” for “serum).”
as §2

[5] = system: MKN1 cells; assay: MKN1 CTG proliferation assay (120 h) (gastric cancer, wt amplified); type: cell-based; conditions: Homo sapiens, MKN-1
Description: as §1, with “MKN1” for “NCI-H358”, “(JCRB0252)” for “(ATCC No. CRL-5807)”, “serum, HyClone, SH30084.03).” for “serum).”
as §2

[6] = Plasma protein binding assay (PPB), equilibrium dialysis; type: in vitro ADME; conditions: bovine, 10% FCS in PBS, read-out: PPB 10% FCS (% fu)
Description: Binding of test compounds to plasma was determined using equilibrium dialysis (ED) and quantitative mass spectrometry interfaced with liquid chromatography (LC-MS). In brief, ED was performed with dialysis devices consisting of two chambers separated by a semipermeable membrane with a molecular weight cut-off of 5-10 kg/mol. One chamber was filled with 10% FCS in PBS containing 1-10 μmol/L test compound and the other chamber was filled with phosphate-buffer saline (PBS) with or without dextran. The dialysis chamber was incubated for 3-5 hours at 37° C. After incubation, protein was precipitated from aliquots of each chamber and the concentration of test compound in the supernatant of the plasma-containing compartment (cserum) and of the buffer-containing compartment (cbuffer) was determined by LC-MS. The fraction of unbound test compound (not bound to plasma) (f) was calculated according to the following equation: […]

Row | Compound | pIC50 [1] | pIC50 [2] | pIC50 [3] | pIC50 [4] | pIC50 [5] | fraction unbound [6]
1 | CO[C@H]1CCN(C)[C@@H]1[C@H](C)Oc1nc(-c2onc3c2CCC[C@@]32CCCc3sc(N)c(C#N)c32)nc2c1n(C)c(=O)n2[C@@H]1CCOC1 [I-23] | 8.40 | 8.70 | 8.40 | 8.52 | 8.22 | 0.22
2 | CO[C@H]1CCN(C)[C@@H]1[C@H](C)Oc1nc(-c2onc3c2CCC[C@@]32CCCc3sc(N)c(C#N)c32)nc2c1CN(C1COC1)C[C@]21CCOC1 [I-57] | 8.40 | 8.70 | 8.52 | 8.52 | 9.00 | 0.28
3 | Cc1cn([C@@H]2CCOC2)c2nc(-c3onc4c3CCC[C@@]43CCCc4sc(N)c(C#N)c43)nc(O[C@@H](C)[C@@H]3CCCN3C)c12 [I-41] | 6.53 | 7.11 | 6.91 | 6.97 | 6.16 | 0.35
4 | C[C@H](Oc1nc(-c2onc3c2CCC[C@@]32CCCc3sc(N)c(C#N)c32)nc2c1n(C)c(=O)n2[C@@]12COC[C@@H]1C2)[C@@H]1CCCN1C [I-29] | 8.70 | 9.00 | 8.70 | 9.00 | 8.30 | 0.39
5 | C[C@H](Oc1nc(-c2onc3c2CCC[C@@]32CCCc3sc(N)c(C#N)c32)nc2c1n(C)c(=O)n2[C@@H]1CCOC1)[C@@H]1CCCN1C [I-20] | 8.40 | 8.70 | 8.40 | 8.70 | 8.10 | 0.28
6 | C[C@H](Oc1nc(-c2onc3c2CCC[C@@]32CCCc3sc(N)c(C#N)c32)nc2c1n(C)c(=O)n2[C@H]1CC2CCC1O2)[C@@H]1CCCN1C (stereo partly drawn) [I-17] | 7.70 | 7.70 | 7.43 | 7.32 | 6.49 | 0.04
7 | CO[C@H]1C[C@@H](n2c(=O)n(C)c3c(O[C@@H](C)[C@@H]4CCCN4C)nc(-c4onc5c4CCC[C@@]54CCCc5sc(N)c(C#N)c54)nc32)C1 [I-31] | 7.22 | 7.64 | 7.28 | 7.42 | 6.01 | 0.09
8 | CO[C@@H]1C[C@@H]([C@H](C)Oc2nc(-c3onc4c3CCC[C@@]43CCCc4sc(N)c(C#N)c43)nc3c2n(C)c(=O)n3[C@@H]2CCCOC2)N(C)C1 [I-14] | 8.05 | 8.70 | 8.30 | 8.22 | 7.32 | 0.15
9 | C[C@H](Oc1nc(-c2onc3c2CCC[C@@]32CCCc3sc(N)c(C#N)c32)nc2c1n(C)c(=O)n2[C@H]1CCCOC1)[C@@H]1CCCN1C [I-11] | 6.41 | 6.89 | 6.51 | 6.30 | 6.48 | 0.06
10 | CO[C@@H]1C[C@@H]([C@H](C)Oc2nc(-c3noc4c3CCC[C@@]43CCCc4sc(N)c(C#N)c43)nc3c2n(C)c(=O)n3[C@@]23COC[C@@H]2C3)N(C)C1 [II-6] | 8.52 | 9.00 | 8.70 | 9.00 | 7.92 | 0.07
11 | C[C@H](Oc1nc(-c2onc3c2CCC[C@@]32CCCc3sc(N)c(C#N)c32)nc2c1N(C)C(=O)CN2[C@@H]1CCOC1)[C@@H]1CCCN1C [I-37] | 6.63 | 6.90 | 6.58 | 6.74 | 6.50 | 0.13
12 | C[C@H](Oc1nc(-c2onc3c2CCC[C@@]32CCCc3sc(N)c(C#N)c32)nc2c1n(C)c(=O)n2[C@@H]1CCOC1)[C@@H]1C[C@@H]2C[C@@H]2N1C [I-28] | 7.26 | 7.92 | 7.59 | 7.57 | 6.87 | 0.05
13 | CO[C@H]1C[C@@H]([C@H](C)Oc2nc(-c3onc4c3CCC[C@@]43CCCc4sc(N)c(C#N)c43)nc3c2n(C)c(=O)n3[C@@H]2CCOC2)N(C)C1 [I-2] | 7.37 | 7.68 | 7.39 | 7.85 | 7.02 | 0.15
14 | Cc1cc2c(O[C@@H](C)[C@@H]3CCCN3C)nc(-c3onc4c3CCC[C@@]43CCCc4sc(N)c(C#N)c43)nc2n1[C@@H]1CCOC1 [I-40] | 7.77 | 7.85 | 7.64 | 7.77 | 6.66 | 0.09
15 | C[C@H](Oc1nc(-c2onc3c2CCC[C@@]32CCCc3sc(N)c(C#N)c32)nc2c1n(C)c(=O)n2[C@H]1CCC[C@@H]1O)[C@@H]1CCCN1C [I-19] | 6.70 | 6.61 | 6.39 | 6.94 | 5.98 | 0.05
16 | C[C@H](Oc1nc(-c2onc3c2CCC[C@@]32CCCc3sc(N)c(C#N)c32)nc2c1n(C)c(=O)n2[C@@H]1CCOC1)[C@@H]1C[C@@H](F)CN1C [I-22] | 8.15 | 8.40 | 8.00 | 8.22 | 7.85 | 0.19
17 | C[C@H](Oc1nc(-c2onc3c2CCC[C@@]32CCCc3sc(N)c(C#N)c32)nc2c1CN(C1COC1)C[C@]21CCOC1)[C@@H]1CC[C@H](C)N1C [I-55] | 8.30 | 9.00 | 8.52 | 8.52 | 7.74 | 0.2
